Where two headings read alike, the source gives them in different places. Positions of bridges follow the written chain, without caps; N, C: chain ends. Non-standard residues stand in square brackets, D forms with d. Residues, ends and D or L forms follow the SMILES beside them. ξ: configuration not given here. Pro(trans-4-F) = O=C(O)[C@@H]1C[C@@H](F)CN1; Phe(3-Me) = Cc1cccc(C[C@H](N)C(=O)O)c1; Bta = N[C@@H](Cc1csc2ccccc12)C(=O)O; Hyp = O=C(O)[C@@H]1C[C@@H](O)CN1; NMeF = CN[C@@H](Cc1ccccc1)C(=O)O; hPhe = N[C@@H](CCc1ccccc1)C(=O)O; AllylGly = C=CC[C@H](N)C(=O)O; NMeNle = CCCC[C@H](NC)C(=O)O; NMeA = CN[C@@H](C)C(=O)O; Dab = NCC[C@H](N)C(=O)O; Dap = NC[C@H](N)C(=O)O; ξC = NC(CS)C(=O)O; Sar = CNCC(=O)O
What was measured:
[1] = target: T1, LK35.2-hPD-L1 cells / PE-labeled PD-1-Ig (Homo sapiens, UniProt Q9NZQ7); assay: LK35.2-hPD-L1 cell binding high-content screening assay; assay type: cell-based; details: cluster symbol, read-out: CBA IC50 cluster
T1 construct: expressed in transfected cells; host or cells: LK35.2 mouse B cell line
Outline: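 Mouse LK35.2 B cells stably over-expressing human PD-L1, cultured overnight, treated with compound plus PE-labeled human PD-1-Ig (1 nM final) in RPMI/10% FCS for 1 h at 37 °C. After washing, bound fluorescence quantified by high-content imaging.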

Human PD-L1/PD-1 = target: T2, Human PD-L1/PD-1 (Homo sapiens, UniProt Q9NZQ7); assay: HTRF PD-1-Ig/PD-L1-His binding assay (human PD-L1); details: cluster symbol; read-out: HTRF IC50 cluster
T2 construct: made in house; host or cells: HEK293T
Outline: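 Soluble PD-1-Ig binding to PD-L1-His measured by HTRF in dPBS with 0.1% BSA and 0.05% Tween-20. Detection used europium cryptate anti-Ig antibody (1 nM final) and APC anti-His antibody (20 nM final) added on top of the binding reaction.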

[2] = cell line of CBA not given (LK35.2-hPD-L1 or 293T-hPD-L1)
[3] = cell binding assay, cell line not given

T1 sequence (Q9NZQ7 19-290): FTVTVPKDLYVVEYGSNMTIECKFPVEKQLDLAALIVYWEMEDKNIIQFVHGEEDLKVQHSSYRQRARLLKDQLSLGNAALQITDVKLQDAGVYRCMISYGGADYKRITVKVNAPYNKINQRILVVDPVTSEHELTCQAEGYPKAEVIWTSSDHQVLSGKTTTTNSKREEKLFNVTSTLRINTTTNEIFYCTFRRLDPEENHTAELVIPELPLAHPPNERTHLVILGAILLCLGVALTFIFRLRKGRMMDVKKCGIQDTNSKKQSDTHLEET
T2 sequence (Q9NZQ7 with tags, fused parts or gaps): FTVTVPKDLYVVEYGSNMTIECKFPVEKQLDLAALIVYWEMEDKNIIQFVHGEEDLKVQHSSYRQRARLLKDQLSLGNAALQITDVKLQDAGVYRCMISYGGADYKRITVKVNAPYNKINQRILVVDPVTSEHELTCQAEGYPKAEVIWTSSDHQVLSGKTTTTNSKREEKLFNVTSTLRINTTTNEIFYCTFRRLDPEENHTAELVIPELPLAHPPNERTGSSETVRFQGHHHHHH

Compound	IC50 [1, 2]	IC50 (Human PD-L1/PD-1)	IC50 [1, 3]
CCCC[C@H]1C(=O)N(C)[C@@H](CCCC)C(=O)N[C@@H](CCCN)C(=O)N[C@H](C(=O)NCC(N)=O)CSCC(=O)N[C@@H](Cc2ccc(O)cc2)C(=O)N2CC(F)(F)C[C@H]2C(=O)N[C@@H](CC(N)=O)C(=O)N2CCC[C@H]2C(=O)N[C@@H](Cc2cnc[nH]2)C(=O)N[C@@H](CC(C)C)C(=O)N2C[C@H](O)C[C@H]2C(=O)N[C@@H](Cc2c[nH]c3ccccc23)C(=O)N[C@@H](CO)C(=O)N[C@@H](Cc2c[nH]c3ccccc23)C(=O)N1C [Example 1174]	0.158 to 4.71 nM	0.385 to 6.74 nM	–
CCCC[C@H]1C(=O)N(C)CC(=O)N[C@@H](CC(=O)O)C(=O)N[C@@H](C(C)C)C(=O)N(C)[C@@H](Cc2ccccc2)C(=O)N[C@@H](Cc2ccc(O)cc2)C(=O)N(C)CC(=O)N[C@@H](Cc2c[nH]c3ccccc23)C(=O)N[C@@H](Cc2ccc(O)cc2)C(=O)N[C@@H](CC(C)C)C(=O)N[C@H](C(=O)NCC(N)=O)CSCC(=O)N[C@@H](CCc2ccccc2)C(=O)N(C)[C@@H](Cc2ccccc2)C(=O)N1C [Example 3082] ({CH2CO}-[hPhe][NMeF][NMeNle][Sar]DV[NMeF]Y[Sar]WYLCG-NH2; thioether N-13)	> 74.3 nM	> 30.5 nM	–
CCCC[C@H]1C(=O)N(C)[C@@H](CCCC)C(=O)N[C@@H](C)C(=O)N[C@H](C(=O)NCC(N)=O)CSCC(=O)N[C@@H](Cc2ccc(O)cc2)C(=O)N(C)[C@@H](C)C(=O)N[C@@H](CC(=O)O)C(=O)N2CCC[C@H]2C(=O)N[C@@H](Cc2c[nH]cn2)C(=O)N[C@@H](CCC(=O)O)C(=O)N2C[C@H](F)C[C@H]2C(=O)N[C@@H](Cc2c[nH]c3ccccc23)C(=O)N[C@@H](CCN)C(=O)N[C@@H](Cc2c[nH]c3ccccc23)C(=O)N1C [Example 13002] ({CH2CO}-Y[NMeA]DPHE[Pro(trans-4-F)]W[Dab]W[NMeNle][NMeNle]ACG-NH2; thioether N-14)	–	0.385 to 6.74 nM	0.158 to 4.71 nM
CCCC[C@H]1C(=O)N(C)[C@@H](CCCC)C(=O)N[C@@H](CCCNC(=N)N)C(=O)N[C@H](C(=O)NCC(N)=O)CSCC(=O)N[C@@H](Cc2cccc(C)c2)C(=O)N(C)[C@@H](C)C(=O)N[C@@H](CC(N)=O)C(=O)N2CCC[C@H]2C(=O)N[C@@H](CN)C(=O)N[C@@H](CC(C)C)C(=O)N2C[C@H](O)C[C@H]2C(=O)N[C@@H](Cc2c[nH]c3ccccc23)C(=O)N[C@@H](CO)C(=O)N[C@@H](Cc2c[nH]c3ccccc23)C(=O)N1C [Example 7035] ({CH2CO}-[Phe(3-Me)][NMeA]NP[Dap]L[Hyp]WSW[NMeNle][NMeNle]RCG-NH2; thioether N-14)	–	0.385 to 6.74 nM	4.78 to 72.9 nM
C=CC[C@@H]1NC(=O)[C@H](Cc2c[nH]c3ccccc23)NC(=O)[C@@H]2CCCN2C(=O)[C@H](CC(C)C)NC(=O)[C@H](Cc2cnc[nH]2)NC(=O)[C@@H]2CCCN2C(=O)[C@H](CC(N)=O)NC(=O)[C@H](C)N(C)C(=O)[C@H](Cc2cnc[nH]2)NC(=O)CSC[C@@H](C(=O)NCC(N)=O)NC(=O)[C@H](CC=C)NC(=O)[C@H](CCCC)N(C)C(=O)[C@H](CCCC)N(C)C(=O)[C@H](Cc2c[nH]c3ccccc23)NC1=O [Example 7021] ({CH2CO}-H[NMeA]NPHLPW[AllylGly]W[NMeNle][NMeNle][AllylGly]CG-NH2; thioether N-14)	–	> 30.5 nM	> 74.3 nM
CCCC[C@H]1C(=O)N(C)[C@@H](CCCC)C(=O)N[C@@H](CCCNC(=N)N)C(=O)N[C@H](C(=O)NCC(N)=O)CSCC(=O)N[C@@H](Cc2ccc(O)cc2)C(=O)N(C)[C@@H](C)C(=O)N[C@@H](CC(N)=O)C(=O)N2CCC[C@H]2C(=O)N[C@@H](Cc2cnc[nH]2)C(=O)N[C@@H](CC(C)C)C(=O)N2CCC[C@H]2C(=O)N[C@@H](Cc2c[nH]c3ccccc23)C(=O)N[C@@H](CO)C(=O)N[C@@H](Cc2csc3ccccc23)C(=O)N1C [Example 1014] ({CH2CO}-Y[NMeA]NPHLPWS[Bta][NMeNle][NMeNle]RCG-NH2; thioether N-14)	0.158 to 4.71 nM	0.385 to 6.74 nM	–
CCCC[C@H]1C(=O)N(C)[C@@H](C)C(=O)N[C@@H](CCCNC(=N)N)C(=O)NC(C(=O)NCC(N)=O)CSCC(=O)N[C@@H](Cc2ccc(O)cc2)C(=O)N(C)[C@@H](C)C(=O)N[C@@H](CC(N)=O)C(=O)N2CCC[C@H]2C(=O)N[C@@H](Cc2cnc[nH]2)C(=O)N[C@@H](CC(C)C)C(=O)N2C[C@H](O)C[C@H]2C(=O)N[C@@H](Cc2c[nH]c3ccccc23)C(=O)N[C@@H](CO)C(=O)N[C@@H](Cc2csc3ccccc23)C(=O)N1C (some centres unmarked) [Example 9058] ({CH2CO}-Y[NMeA]NPHL[Hyp]WS[Bta][NMeNle][NMeA]R[ξC]G-NH2; thioether N-14)	–	0.385 to 6.74 nM	0.158 to 4.71 nM

— US9850283B2, “Macrocyclic inhibitors of the PD-1/PD-L1 and CD80(B7-1)/PD-L1 protein/protein interactions” (BRISTOL-MYERS SQUIBB COMPANY, priority 2013, dated 2017)
